Experimental findings from US20200367818A1, “DEVICES, SYSTEMS, AND METHODS FOR TUMOR VISUALIZATION AND REMOVAL” (UNIVERSITY HEALTH NETWORK, priority 2018, published 2020) are described below.

The test system of this assay is invasive breast carcinoma lumpectomy/mastectomy specimens and lymph nodes. Kind of assay: 5-ALA breast study: PpIX fluorescence imaging of breast tumor specimens and lymph nodes with handheld device (405 nm excitation). It counts as in vivo, human. The settings on record: multispectral or multiband fluorescence imaging with 5-ALA.

Counter-ions that a name gives are not always drawn. A value given as a limit tells only on which side of the number the result lay.

Protocol: In one example, oral 5-ALA was dissolved in water and administered by a study nurse between 2-4 h before surgery in patients at dosages of 15 or 30 mg/kg 5-ALA.
By viewing lymph nodes prior to removal from the subject's body, it is possible to observe, using the device 100, red fluorescence emissions from cells containing induced porphyrins that are within the lymph node.
When combined with 5-ALA red FL, the differing emission spectra of normal tissue AF and PpIX are easily distinguishable visually (see FIGS. 15 and 16). […] The 405 nm excitation LEDs and the dual band emission filter (500-545 nm and 600-660 nm) are suitable for breast tumor imaging using 5-ALA because they provide a composite image comprised of red PpIX and green connective tissue FL, and broad green-to-red FL of adipose tissue (appears pink).

For `NCC(=O)CCC(=O)O` [5-ALA, Aminolevulinic acid hydrochloride], the “depth below the imaged tissue surface at which otherwise clinically occult disease is detected” value was no more than 2.6 mm.
